The values below come from PubChem BioAssay AID266 (DTP/NCI, 2004).

“And” between values parts separate entries of the source, which are not always exact repeats. Equal values may be shown once. Inconclusive results are not listed. Starred links: 1 amine or outer side, 2 acyl side, 3 side chain; linkers in the order of their positions; H or OH if unused. Positions of bridges follow the written chain, without caps; N, C: chain ends. Non-standard residues stand in square brackets, D forms with d. Residues, ends and D or L forms follow the SMILES beside them. Chains are numbered I, II in the order given. Actinocin(9to1) = Cc1c2oc3c(C)ccc(C(=O)[*:1])c3nc-2c(C(=O)[*:2])c(N)c1=O; aThr = C[C@H](O)[C@H](N)C(=O)O; NMeV = CN[C@H](C(=O)O)C(C)C; Sar = CNCC(=O)O

The subject of the assay is Nude mice, LX-1 lung xenograft intrarenal, tumor weight T/C. The experiment in a line: NCI In Vivo Anticancer Drug Screen. Data for tumor model Human Lung LX-1 Xenograft (intrarenal inoculation) in NU/NU BALB/C (nude) mice. Conditions: endpoint: mean tumor weight change, higher = larger tumour. On the procedure:
The antitumor activity of compounds was measured in mice bearing transplantable tumors. Survival or tumor size were measured and the results are expressed as the measurement made in the treated group (T) divided by the measurement made in the vehicle treated control group (C). The tumor model used in this assay is Human Lung LX-1 Xenograft (intrarenal inoculation) in NU/NU BALB/C (nude) mice

Setting [1] is: dose: 300.0 mg/kg/injection, schedule: Q04DX003 (sc), vehicle: Klucel (hydroxypropylcellulose) (HPC).
The mark [2] stands for this setting: dose: 600.0 mg/kg/injection, schedule: Q04DX003 (sc), vehicle: Klucel (hydroxypropylcellulose) (HPC).
[3] abbreviates: dose: 300.0 mg/kg/injection, schedule: Q04DX003 (sc), vehicle: saline.
Where [4] appears, read: dose: 600.0 mg/kg/injection, schedule: Q04DX003 (sc), vehicle: saline.
Where [5] appears, read: dose: 1200.0 mg/kg/injection, schedule: Q04DX003 (sc), vehicle: saline.

Consider `Cc1c2oc3c(C)ccc(C(=O)N[C@@H]4C(=O)N[C@H](C(C)C)C(=O)N5CCC[C@H]5C(=O)N(C)CC(=O)N(C)[C@@H](C(C)C)C(=O)O[C@H]4C)c3nc-2c(C(=O)N[C@@H]2C(=O)N[C@H](C(C)C)C(=O)N3CCC[C@H]3C(=O)N(C)CC(=O)N(C)[C@@H](C(C)C)C(=O)O[C@H]2C)c(N)c1=O` (I: [aThr][dV]P[Sar][NMeV] / II: [aThr][dV]P[Sar][NMeV]; ester I:1-I:C, II:1-II:C; linker I:N-II:N via Actinocin(9to1)), for which the T/C is, setting by setting: (dose: 50.0 micrograms/kg/injection, schedule: Q01DX010 (sc), vehicle: saline) 35 % of control; (dose: 100.0 micrograms/kg/injection, schedule: Q01DX010 (sc), vehicle: saline) 11 % of control.
Turning to `C1CC[N-]CC1.[Cl][Pt+2][Cl].[NH-]C1CC1`, the T/C runs as follows: (dose: 25.0 mg/kg/injection, schedule: Q04DX003 (sc), vehicle: water) 106 % of control; (dose: 50.0 mg/kg/injection, schedule: Q04DX003 (sc), vehicle: water) 71 % of control; (dose: 100.0 mg/kg/injection, schedule: Q04DX003 (sc), vehicle: water) 51 % of control.
With `O=C1N[C@H]2[C@H](CS[C@H]2CCCCC(=O)N(CCP(c2ccccc2)c2ccccc2)CCP(c2ccccc2)c2ccccc2)N1`, the T/C is 84 % of control under setting [1]; 64 % of control under setting [2]; 87 % of control (dose: 1200.0 mg/kg/injection, schedule: Q04DX003 (sc), vehicle: Klucel (hydroxypropylcellulose) (HPC)); 71 % of control (dose: 2400.0 mg/kg/injection, schedule: Q04DX003 (sc), vehicle: Klucel (hydroxypropylcellulose) (HPC)).
Regarding `N#CN=[N+]([O-])c1ccc(C(=O)O)cc1`, the T/C runs as follows: (dose: 11.25 mg/kg/injection, schedule: Q04DX003 (sc), vehicle: Klucel (hydroxypropylcellulose) (HPC)) 66 % of control; (dose: 22.5 mg/kg/injection, schedule: Q04DX003 (sc), vehicle: Klucel (hydroxypropylcellulose) (HPC)) 65 % of control; (dose: 45.0 mg/kg/injection, schedule: Q04DX003 (sc), vehicle: Klucel (hydroxypropylcellulose) (HPC)) 47 % of control.
As to `CN(CCN(C)C(=O)CCOS(C)(=O)=O)C(=O)CCOS(C)(=O)=O`, the T/C by setting is: (dose: 37.5 mg/kg/injection, schedule: Q04DX003 (sc), vehicle: saline) 90 % of control; (dose: 75.0 mg/kg/injection, schedule: Q04DX003 (sc), vehicle: saline) 91 % of control; (dose: 150.0 mg/kg/injection, schedule: Q04DX003 (sc), vehicle: saline) 86 % of control; under setting [3], 36 % of control.
In the case of `O=C(O)[C@H](Cc1ccccc1)N1C(=O)c2ccccc2C1=O`, the T/C by setting is: (dose: 150.0 mg/kg/injection, schedule: Q04DX003 (ip), vehicle: DMSO) 98 % of control; (dose: 300.0 mg/kg/injection, schedule: Q04DX003 (ip), vehicle: DMSO) 58 % of control; (dose: 600.0 mg/kg/injection, schedule: Q04DX003 (ip), vehicle: DMSO) 53 % of control.
For `Nc1nc(=S)c2[nH]cnc2[nH]1`, the T/C was 105 % of control (dose: 0.4 mg/kg/injection, schedule: Q01DX010 (sc), vehicle: Klucel (hydroxypropylcellulose) (HPC)); 76 % of control (dose: 1.6 mg/kg/injection, schedule: Q01DX010 (sc), vehicle: Klucel (hydroxypropylcellulose) (HPC)); 58 % of control (dose: 3.2 mg/kg/injection, schedule: Q01DX010 (sc), vehicle: Klucel (hydroxypropylcellulose) (HPC)).
`CC[C@@]1(O)C(=O)OCc2c1cc1n(c2=O)Cc2cc3ccccc3nc2-1`: the T/C runs as follows: (dose: 5.0 mg/kg/injection, schedule: Q04DX003 (sc), vehicle: saline with Tween-80) 15 % of control; (dose: 10.0 mg/kg/injection, schedule: Q04DX003 (sc), vehicle: saline with Tween-80) 5 % of control and 12 % of control; (dose: 20.0 mg/kg/injection, schedule: Q04DX003 (sc), vehicle: saline with Tween-80) 3 % of control and 4 % of control.
For `CCOC(C)C(/C=N/NC(N)=S)=NNC(N)=S` (stereo unspecified), the T/C reads like this: (dose: 200.0 mg/kg/injection, schedule: Q01DX010 (sc), vehicle: saline with Tween-80) 231 % of control; (dose: 400.0 mg/kg/injection, schedule: Q01DX010 (sc), vehicle: saline with Tween-80) 233 % of control; (dose: 800.0 mg/kg/injection, schedule: Q01DX010 (sc), vehicle: saline with Tween-80) 78 % of control.
Turning to `O=C(O)CP(=O)(O)O`, the T/C is 105 % of control under setting [3], 156 % of control under setting [4] and 106 % of control under setting [5].
In the case of `O=CNCO`, the T/C reads like this: (dose: 250.0 mg/kg/injection, schedule: Q01DX010 (sc), vehicle: water) 72 % of control; (dose: 500.0 mg/kg/injection, schedule: Q01DX010 (sc), vehicle: water) 87 % of control; (dose: 1000.0 mg/kg/injection, schedule: Q01DX010 (sc), vehicle: water) 100 % of control; (dose: 2000.0 mg/kg/injection, schedule: Q01DX010 (sc), vehicle: water) 80 % of control.
Take `N=[N+]=CC(=O)CCC(NC(=O)C(CCC(=O)C=[N+]=N)NC(=O)CCC(N)C(=O)O)C(=O)O` (stereo unspecified): the T/C (dose: 0.2 mg/kg/injection, schedule: Q02DX005 (sc), vehicle: water) is 114 % of control; the T/C (dose: 0.4 mg/kg/injection, schedule: Q02DX005 (sc), vehicle: water) is 73 % of control; the T/C (dose: 0.8 mg/kg/injection, schedule: Q02DX005 (sc), vehicle: water) was 26 % of control; the T/C (dose: 1.6 mg/kg/injection, schedule: Q02DX005 (sc), vehicle: water) is 74 % of control; the T/C (dose: 3.2 mg/kg/injection, schedule: Q02DX005 (sc), vehicle: water) was 65 % of control; the T/C (dose: 6.4 mg/kg/injection, schedule: Q02DX005 (sc), vehicle: water) was 41 % of control.
Turning to `CCNC(C)(C)C(SSS)c1ccco1` (stereo unspecified), the T/C runs as follows: (dose: 150.0 mg/kg/injection, schedule: Q04DX003 (sc), vehicle: Klucel (hydroxypropylcellulose) (HPC)) 82 % of control; under setting [1], 84 % of control; under setting [2], 76 % of control.
Take `COc1cccc2c1C(=O)c1c(O)c3c(c(O)c1C2=O)C[C@@](O)(C(C)=O)C[C@@H]3OC1CC(N)C(O)C(C)O1` (stereo partly specified): the T/C (dose: 2.0 mg/kg/injection, schedule: Q01DX010 (sc), vehicle: saline) was 109 % of control; the T/C (dose: 4.0 mg/kg/injection, schedule: Q01DX010 (sc), vehicle: saline) was 153 % of control; the T/C (dose: 8.0 mg/kg/injection, schedule: Q01DX010 (sc), vehicle: saline) was 31 % of control.
For the compound `Nc1ccn([C@@H](C=O)O[C@@H](C=O)CO)c(=O)n1`, the T/C (dose: 200.0 mg/kg/injection, schedule: Q04DX003 (sc), vehicle: saline) was 108 % of control.
As to `NC(CCC(=O)NC(CS)C(=O)NCC(=O)O)C(=O)O` (stereo unspecified), the T/C reads like this: under setting [3], 97 % of control; under setting [4], 69 % of control; under setting [5], 74 % of control; (dose: 2400.0 mg/kg/injection, schedule: Q04DX003 (sc), vehicle: saline) 121 % of control.
Take `CC1=C2CC(C)(C)/C=C\C(=O)/C(C)=C\C3=C[C@H](C)C[C@]3(O2)C1=O`: the T/C (dose: 6.0 mg/kg/injection, schedule: Q01DX010 (sc), vehicle: Klucel (hydroxypropylcellulose) (HPC)) is 81 % of control; the T/C (dose: 12.0 mg/kg/injection, schedule: Q01DX010 (sc), vehicle: Klucel (hydroxypropylcellulose) (HPC)) was 168 % of control; the T/C (dose: 24.0 mg/kg/injection, schedule: Q01DX010 (sc), vehicle: Klucel (hydroxypropylcellulose) (HPC)) was 236 % of control; the T/C (dose: 50.0 mg/kg/injection, schedule: Q01DX010 (sc), vehicle: Klucel (hydroxypropylcellulose) (HPC)) was 33 % of control.
Regarding `CCC1=C[C@H]2CN(CCc3c([nH]c4ccccc34)[C@@](C(=O)OC)(c3cc4c(cc3OC)N(C)[C@H]3[C@@](O)(C(=O)NC)[C@H](OC(C)=O)[C@]5(CC)C=CCN6CC[C@]43[C@@H]65)C2)C1`, the T/C (dose: 1.0 mg/kg/injection, schedule: Q04DX003 (sc), vehicle: water) was 30 % of control.
With `CCC12C[N+]3([O-])CCc4c([nH]c5ccccc45)C(C(=O)OC)(c4cc5c(cc4OC)N(C)C4C(O)(C(=O)OC)C(OC(C)=O)C6(CC)C=CCN7CCC54C76)CC(C3)C1O2` (stereo unspecified), the T/C by setting is: (dose: 40.0 mg/kg/injection, schedule: Q04DX003 (sc), vehicle: water) 64 % of control; (dose: 80.0 mg/kg/injection, schedule: Q04DX003 (sc), vehicle: water) 86 % of control; (dose: 160.0 mg/kg/injection, schedule: Q04DX003 (sc), vehicle: water) 93 % of control; (dose: 320.0 mg/kg/injection, schedule: Q04DX003 (sc), vehicle: water) 93 % of control.
